Counter-ions that a name gives are not always drawn. Like-named read-outs stand apart in the source and are kept apart here.
Assays:
Format in all cases: biochemical
α-Glucosidase (Yeast) = α-Glucosidase (Yeast) (Saccharomyces cerevisiae, UniProt P53341); experiment: α-Glucosidase (yeast) inhibition
Method: (§1) With rat intestinal maltase as an exception, other enzymes were purchased from Sigma-Aldrich Chemical Co. (St. Louis, MO, USA). Brush border membranes prepared from rat small intestine according to the method of Kessler et al. were assayed at pH 6.8 for rat intestinal maltase using maltose. The released D-glucose was determined colorimetrically using the Glucose CII-test Wako (Wako Pure Chemical Ind.; Osaka, Japan). Other glycosidase activities were determined using an appropriate p-nitrophenyl glycoside as substrate in a buffer solution at the optimal pH value of each enzyme. The reaction was stopped by adding 400 mM Na2CO3. The released p-nitrophenol was measured spectrometrically at 400 nm.

α-Glucosidase (Rice) = target: T1, α-Glucosidase (Rice) (Oryza sativa subsp. japonica, UniProt Q653V7); experiment: α-Glucosidase (rice) inhibition
T1 construct: purchased Sigma-Aldrich Chemical Co
T1 sequence (Q653V7 34-885): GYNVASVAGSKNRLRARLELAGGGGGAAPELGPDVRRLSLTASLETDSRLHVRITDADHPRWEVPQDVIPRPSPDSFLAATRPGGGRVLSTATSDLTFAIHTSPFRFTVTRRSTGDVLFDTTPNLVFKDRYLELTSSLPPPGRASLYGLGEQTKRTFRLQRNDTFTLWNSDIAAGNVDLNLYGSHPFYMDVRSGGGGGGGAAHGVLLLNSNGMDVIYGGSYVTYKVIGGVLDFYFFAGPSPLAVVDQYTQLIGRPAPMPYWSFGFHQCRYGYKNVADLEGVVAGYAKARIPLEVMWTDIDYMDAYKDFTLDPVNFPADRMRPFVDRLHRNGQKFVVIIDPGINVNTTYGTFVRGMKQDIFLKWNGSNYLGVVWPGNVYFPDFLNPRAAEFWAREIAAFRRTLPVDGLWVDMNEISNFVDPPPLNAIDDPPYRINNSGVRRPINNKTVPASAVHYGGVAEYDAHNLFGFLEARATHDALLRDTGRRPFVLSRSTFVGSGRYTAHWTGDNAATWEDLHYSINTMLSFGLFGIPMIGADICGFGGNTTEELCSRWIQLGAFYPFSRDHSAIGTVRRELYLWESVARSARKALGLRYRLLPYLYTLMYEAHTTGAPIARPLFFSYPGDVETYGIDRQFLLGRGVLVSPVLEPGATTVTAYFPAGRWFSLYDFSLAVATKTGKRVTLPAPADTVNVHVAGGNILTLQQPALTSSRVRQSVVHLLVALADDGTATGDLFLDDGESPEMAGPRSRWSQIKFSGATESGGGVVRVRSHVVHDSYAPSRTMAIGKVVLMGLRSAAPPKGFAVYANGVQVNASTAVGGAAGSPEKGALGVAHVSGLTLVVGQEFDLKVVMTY
Method: as §1

[1] = target: β-Glucosidase (Bovine liver); experiment: β-Glucosidase (bovine liver) inhibition
Method: as §1

[2] = target: T2, α-Galactosidase (Coffee beans) (Coffea arabica, UniProt Q42656); experiment: α-Galactosidase (coffee beans) inhibition
T2 construct: purchased Sigma-Aldrich Chemical Co
T2 sequence (Q42656 16-378): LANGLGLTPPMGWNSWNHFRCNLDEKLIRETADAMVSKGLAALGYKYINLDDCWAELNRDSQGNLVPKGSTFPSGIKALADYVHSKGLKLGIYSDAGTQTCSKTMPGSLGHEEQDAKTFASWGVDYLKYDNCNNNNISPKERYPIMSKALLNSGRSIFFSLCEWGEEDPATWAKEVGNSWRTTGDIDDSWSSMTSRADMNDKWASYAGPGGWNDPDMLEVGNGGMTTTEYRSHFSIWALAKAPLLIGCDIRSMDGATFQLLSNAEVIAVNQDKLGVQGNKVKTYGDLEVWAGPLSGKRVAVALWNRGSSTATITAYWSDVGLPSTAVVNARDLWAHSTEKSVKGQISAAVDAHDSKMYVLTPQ
Method: as §1

[3] = target: T3, β-Galactosidase (Bovine liver) (Bos taurus, UniProt F1MNT6); experiment: β-Galactosidase (bovine liver) inhibition
T3 sequence (F1MNT6 1-469): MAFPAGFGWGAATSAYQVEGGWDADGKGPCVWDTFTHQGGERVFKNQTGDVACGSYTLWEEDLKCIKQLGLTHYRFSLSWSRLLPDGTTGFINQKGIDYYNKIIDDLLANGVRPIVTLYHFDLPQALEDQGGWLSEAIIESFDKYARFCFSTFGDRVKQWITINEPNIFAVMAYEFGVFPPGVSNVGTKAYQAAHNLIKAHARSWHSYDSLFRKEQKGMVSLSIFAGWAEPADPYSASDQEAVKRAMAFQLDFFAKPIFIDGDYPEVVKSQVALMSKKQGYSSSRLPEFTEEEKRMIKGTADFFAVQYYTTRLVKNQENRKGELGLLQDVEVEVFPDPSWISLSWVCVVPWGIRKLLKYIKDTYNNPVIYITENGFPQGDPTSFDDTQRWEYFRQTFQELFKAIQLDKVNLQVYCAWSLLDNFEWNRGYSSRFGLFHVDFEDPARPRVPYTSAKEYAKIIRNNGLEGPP
Method: as §1

β-Mannosidase (Snail) = experiment: β-Mannosidase (snail) inhibition
Method: as §1

[4] = target: T4, α-L-Fucosidase (Bovine kidney) (Bos taurus, UniProt Q2KIM0); experiment: α-L-Fucosidase (bovine kidney) inhibition
T4 construct: purchased Sigma-Aldrich Chemical Co; host or cells: bovine kidney
T4 sequence (Q2KIM0 23-468): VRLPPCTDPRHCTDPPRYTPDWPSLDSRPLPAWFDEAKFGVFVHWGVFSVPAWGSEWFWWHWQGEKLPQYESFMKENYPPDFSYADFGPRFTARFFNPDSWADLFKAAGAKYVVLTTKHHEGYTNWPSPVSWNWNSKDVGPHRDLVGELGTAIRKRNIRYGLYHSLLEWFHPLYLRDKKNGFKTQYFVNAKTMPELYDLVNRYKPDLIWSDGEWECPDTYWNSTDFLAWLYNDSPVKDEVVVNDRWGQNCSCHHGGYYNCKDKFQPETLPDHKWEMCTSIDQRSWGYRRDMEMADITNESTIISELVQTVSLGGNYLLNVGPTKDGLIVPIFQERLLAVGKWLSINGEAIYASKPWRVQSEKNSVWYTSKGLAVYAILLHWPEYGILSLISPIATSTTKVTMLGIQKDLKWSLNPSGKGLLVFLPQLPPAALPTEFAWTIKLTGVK
Method: as §1

[5] = target: T5, Amyloglucosidase (A. niger) (Aspergillus niger, UniProt P69328); experiment: Amyloglucosidase (A. niger) inhibition
T5 construct: purchased Sigma-Aldrich Chemical Co
T5 sequence (P69328 25-640): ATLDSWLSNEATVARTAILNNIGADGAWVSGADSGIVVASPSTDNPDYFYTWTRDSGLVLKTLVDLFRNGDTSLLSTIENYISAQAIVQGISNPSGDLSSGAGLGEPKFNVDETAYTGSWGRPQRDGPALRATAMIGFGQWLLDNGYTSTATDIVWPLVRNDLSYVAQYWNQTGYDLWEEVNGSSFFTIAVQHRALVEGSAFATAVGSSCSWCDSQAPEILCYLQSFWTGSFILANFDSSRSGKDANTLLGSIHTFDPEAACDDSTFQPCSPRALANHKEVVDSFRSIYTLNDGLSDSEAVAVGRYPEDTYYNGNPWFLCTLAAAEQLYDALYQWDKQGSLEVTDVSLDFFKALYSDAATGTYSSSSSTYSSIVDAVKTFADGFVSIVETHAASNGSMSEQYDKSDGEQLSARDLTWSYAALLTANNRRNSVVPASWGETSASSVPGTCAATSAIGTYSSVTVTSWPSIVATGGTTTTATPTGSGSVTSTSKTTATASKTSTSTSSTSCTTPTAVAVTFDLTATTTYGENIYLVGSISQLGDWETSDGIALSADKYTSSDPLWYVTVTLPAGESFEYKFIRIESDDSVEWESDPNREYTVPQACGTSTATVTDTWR
Method: as §1

[6] = target: α-L-Rhamnosidase (P. decumbens); experiment: α-L-Rhamnosidase (P. decumbens) inhibition
Method: as §1

[7] = target: T6, β-Glucuronidase (E. coli) (Escherichia coli, UniProt P05804); experiment: β-Glucuronidase (E. coli) inhibition
T6 construct: purchased Sigma-Aldrich Chemical Co
T6 sequence (P05804 whole entry): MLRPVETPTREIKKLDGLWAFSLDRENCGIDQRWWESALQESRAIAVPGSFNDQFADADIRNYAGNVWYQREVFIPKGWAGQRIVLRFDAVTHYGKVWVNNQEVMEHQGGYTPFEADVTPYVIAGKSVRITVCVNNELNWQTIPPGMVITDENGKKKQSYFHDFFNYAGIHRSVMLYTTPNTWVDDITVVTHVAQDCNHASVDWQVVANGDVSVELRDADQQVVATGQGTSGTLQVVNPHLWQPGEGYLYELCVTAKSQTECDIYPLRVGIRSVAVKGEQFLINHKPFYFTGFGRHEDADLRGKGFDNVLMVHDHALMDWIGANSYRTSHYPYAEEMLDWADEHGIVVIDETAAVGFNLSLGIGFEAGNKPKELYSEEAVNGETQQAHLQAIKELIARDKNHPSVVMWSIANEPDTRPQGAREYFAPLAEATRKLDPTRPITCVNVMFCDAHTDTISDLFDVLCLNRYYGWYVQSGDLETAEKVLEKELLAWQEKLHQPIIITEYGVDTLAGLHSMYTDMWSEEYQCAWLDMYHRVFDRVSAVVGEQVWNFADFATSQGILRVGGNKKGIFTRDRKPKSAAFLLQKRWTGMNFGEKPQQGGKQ
Method: as §1

[8] = target: β-N-Acetylhexosaminidase (HL60); experiment: β-N-Acetylhexosaminidase (HL60) inhibition; conditions: for IC50: β-N-Acetylhexosaminidase (β-GlcNAcase); for Inhibition % at 1000 μM: β-N-Acetylhexosaminidase
Method: as §1

[9] = target: β-N-Acetylhexosaminidase (Jack bean); experiment: β-N-Acetylhexosaminidase (Jack bean) inhibition; conditions: for IC50: β-N-Acetylhexosaminidase (β-GlcNAcase)
Method: as §1

[10] = target: T7, α-N-Acetylgalactosaminidase (Chicken liver) (Gallus gallus, UniProt Q90744); experiment: α-N-Acetylgalactosaminidase (chicken liver) inhibition
T7 construct: purchased Sigma-Aldrich Chemical Co; host or cells: chicken liver
T7 sequence (Q90744 1-405): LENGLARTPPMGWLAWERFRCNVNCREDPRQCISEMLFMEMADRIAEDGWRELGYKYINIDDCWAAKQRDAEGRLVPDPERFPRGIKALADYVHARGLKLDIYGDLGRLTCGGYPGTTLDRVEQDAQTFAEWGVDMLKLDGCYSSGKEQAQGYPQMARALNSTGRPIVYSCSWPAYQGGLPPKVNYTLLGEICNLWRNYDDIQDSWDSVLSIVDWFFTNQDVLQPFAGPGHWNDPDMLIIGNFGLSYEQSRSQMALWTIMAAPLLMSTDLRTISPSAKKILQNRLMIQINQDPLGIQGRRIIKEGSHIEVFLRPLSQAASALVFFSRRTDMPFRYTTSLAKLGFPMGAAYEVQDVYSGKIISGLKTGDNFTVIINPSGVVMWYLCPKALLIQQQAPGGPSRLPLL
Method: as §1

[11] = read-out: Inhibition % at 1000 μM
[12] = 1000 μM, read-out: Inhibition % at 1000 μM
[13] = α-Glucosidase, Yeast, read-out: IC50

Chain of α-Glucosidase (Yeast) (P53341 whole entry): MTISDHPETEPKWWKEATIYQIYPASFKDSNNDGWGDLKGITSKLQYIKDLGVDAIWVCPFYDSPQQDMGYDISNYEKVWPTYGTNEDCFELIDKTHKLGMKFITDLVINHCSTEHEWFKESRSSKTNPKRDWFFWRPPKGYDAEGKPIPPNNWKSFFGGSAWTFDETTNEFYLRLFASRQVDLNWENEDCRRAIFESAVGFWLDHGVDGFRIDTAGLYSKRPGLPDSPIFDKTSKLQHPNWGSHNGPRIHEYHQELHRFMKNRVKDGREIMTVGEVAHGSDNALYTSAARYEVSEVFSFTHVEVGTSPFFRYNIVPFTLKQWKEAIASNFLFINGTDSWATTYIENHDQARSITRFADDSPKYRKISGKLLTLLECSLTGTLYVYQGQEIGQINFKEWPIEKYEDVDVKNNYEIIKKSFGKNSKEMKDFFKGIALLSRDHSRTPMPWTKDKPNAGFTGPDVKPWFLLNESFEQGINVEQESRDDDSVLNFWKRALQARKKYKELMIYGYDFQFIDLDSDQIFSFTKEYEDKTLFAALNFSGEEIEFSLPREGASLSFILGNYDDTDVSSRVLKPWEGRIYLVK

SMILES | inhibition at 1000 µM (α-Glucosidase (Yeast); [11]) [%] | inhibition at 1000 µM (α-Glucosidase (Rice); [12]) [%] | inhibition at 1000 µM (α-Glucosidase (Rice); read-out: IC50) [%] | IC50 [1] | Inhibition % at 1000 μM [1] [%] | inhibition at 1000 µM [2, 12] [%] | inhibition at 1000 µM ([2]; read-out: IC50) [%] | inhibition at 1000 µM [3, 12] [%] | inhibition at 1000 µM ([3]; read-out: IC50) [%] | IC50 (β-Mannosidase (Snail)) | Inhibition % at 1000 μM (β-Mannosidase (Snail)) [%] | inhibition at 1000 µM [4, 12] [%] | inhibition at 1000 µM ([4]; read-out: IC50) [%] | inhibition at 1000 µM [5, 12] [%] | inhibition at 1000 µM ([5]; read-out: IC50) [%] | IC50 [6] | Inhibition % at 1000 μM [6] [%] | inhibition at 1000 µM [7, 12] [%] | inhibition at 1000 µM ([7]; read-out: IC50) [%] | IC50 [8] | further results
CC(=O)NC[C@@H]1N[C@H](CO)[C@H](O)[C@H]1O [F-10a, 1-N-acetylamino-2,5-imino-1,2,5-trideoxy-L-glucitol hydrochloride] | 6.91 | 12.5 | < 50 | NI (No Inhibition (less than 50% at 1000 μM)) | 0.3 | 0.36 | < 50 | 4.2 | < 50 | NI (No Inhibition (less than 50% at 1000 μM)) | 3.23 | 8.4 | < 50 | 2.8 | < 50 | NI (No Inhibition (less than 50% at 1000 μM)) | 5.3 | 0 | < 50 | NI (No Inhibition (less than 50% at 1000 μM)) | inhibition at 1000 µM (α-Glucosidase (Yeast); read-out: IC50): < 50%; Inhibition % at 1000 μM [8]: 0%; IC50 [9]: NI (No Inhibition (less than 50% at 1000 μM)); Inhibition % at 1000 μM ([9]; β-N-Acetylhexosaminidase, 1000 μM): 42%; inhibition at 1000 µM [10, 12]: 0%; inhibition at 1000 µM ([10]; read-out: IC50): < 50%
CC(=O)NC[C@H]1N[C@H](CO)[C@H](O)[C@H]1O [F-10b, 1-N-acetylamino-2,5-imino-1,2,5-trideoxy-D-iditol hydrochloride] | 0 | 0 | < 50 | NI (No Inhibition (less than 50% at 1000 μM)) | 0 | 0 | < 50 | 4.2 | < 50 | NI (No Inhibition (less than 50% at 1000 μM)) | 0 | 3.9 | < 50 | 5.7 | < 50 | NI (No Inhibition (less than 50% at 1000 μM)) | 3.0 | 0 | < 50 | NI (No Inhibition (less than 50% at 1000 μM)) | inhibition at 1000 µM (α-Glucosidase (Yeast); [13]): < 50%; Inhibition % at 1000 μM [8]: 16.6%; IC50 ([9]; read-out: IC50): 98 µM; inhibition at 1000 µM [10, 12]: 2.3%; inhibition at 1000 µM ([10]; read-out: IC50): < 50%
CC(=O)NC[C@H]1N[C@@H](CO)[C@H](O)[C@@H]1O [G-10, 1-N-acetylamino-2,5-imino-1,2,5-trideoxy-D-allitol hydrochloride] | 0 | 0 | < 50 | NI (No Inhibition (less than 50% at 1000 μM)) | 0 | 0 | < 50 | 2.9 | < 50 | NI (No Inhibition (less than 50% at 1000 μM)) | 0 | 11.5 | < 50 | 7.6 | < 50 | NI (No Inhibition (less than 50% at 1000 μM)) | 9.5 | 0 | < 50 | NI (No Inhibition (less than 50% at 1000 μM)) | inhibition at 1000 µM (α-Glucosidase (Yeast); [13]): < 50%; Inhibition % at 1000 μM [8]: 18.8%; IC50 ([9]; read-out: IC50): 26 µM; inhibition at 1000 µM [10, 12]: 2.3%; inhibition at 1000 µM ([10]; read-out: IC50): < 50%
CC(=O)NC[C@@H]1N[C@H](CO)[C@@H](O)[C@H]1O [H-10, 1-N-acetylamino-2,5-imino-1,2,5-trideoxy-L-allitol hydrochloride] | 0 | 5.6 | < 50 | NI (No Inhibition (less than 50% at 1000 μM)) | 1.7 | 0 | < 50 | 3.6 | < 50 | NI (No Inhibition (less than 50% at 1000 μM)) | 0 | 22.3 | < 50 | 8.3 | < 50 | NI (No Inhibition (less than 50% at 1000 μM)) | 7.7 | 0 | < 50 | NI (No Inhibition (less than 50% at 1000 μM)) | inhibition at 1000 µM (α-Glucosidase (Yeast); [13]): < 50%; Inhibition % at 1000 μM [8]: 0.3%; IC50 ([9]; read-out: IC50): 241 µM; inhibition at 1000 µM [10, 12]: 6.1%; inhibition at 1000 µM ([10]; read-out: IC50): < 50%
